Experimental data: the supplement of paper PMC10307832

Legend:
Assay in all cases: relative viability (nuclei count vs DMSO), 5 days (fraction); higher = more cells survive
[1] = compound: C#Cc1cccc(Nc2ncnc3cc(OC)c(OCCCCCCC(=O)NO)cc23)c1 [CUDC-101] + Nc1nc2[nH]cc(CCc3ccc(C(=O)N[C@@H](CCC(=O)O)C(=O)O)cc3)c2c(=O)[nH]1 [Pemetrexed] (partner 0.2 µM)
In short: (§1)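 Relative viability equals treated-well nuclei counts divided by vehicle-well nuclei counts. Counts came from 4× images of lung cancer cell lines grown in 1536-well plates for 5 days after pin-tool dosing on the day after seeding. Dosing used one drug alone or a fixed anchor-drug dose plus five library-drug doses (not always all listed) in √10 steps, and values are medians of duplicate plates.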

[2] = compound: C1=CC=C2C(=C1)N=C(S2)C(C#N)C3=NC(=NC=C3)NCCC4=CN=CC=C4 + Cc1cc(Nc2cc(N3CCN(C)CC3)nc(Sc3ccc(NC(=O)C4CC4)cc3)n2)n[nH]1 [Tozasertib] (partner 0.1 µM)
In short: as §1

[3] = compound: COc1cc2/c(=N/c3ccc(Br)cc3F)nc[nH]c2cc1OCC1CCN(C)CC1 [Vandetanib] + CCNC(=O)c1noc(-c2cc(C(C)C)c(O)cc2O)c1-c1ccc(CN2CCOCC2)cc1 [Luminespib] (partner 0.01 µM)
In short: as §1

[4] = compound: COc1cc2/c(=N/c3ccc(Br)cc3F)nc[nH]c2cc1OCC1CCN(C)CC1 [Vandetanib] + Nc1nc2[nH]cc(CCc3ccc(C(=O)N[C@@H](CCC(=O)O)C(=O)O)cc3)c2c(=O)[nH]1 [Pemetrexed] (partner 0.2 µM)
In short: as §1

Row | Cell Line | relative viability ([1]; first compound 0.01 µM) | relative viability ([1]; first compound 0.03162 µM) | relative viability ([1]; first compound 0.1 µM) | relative viability ([1]; first compound 0.3162 µM) | relative viability ([1]; first compound 1 µM) | relative viability ([2]; first compound 0.005 µM) | relative viability ([2]; first compound 0.01581 µM) | relative viability ([2]; first compound 0.05 µM) | relative viability ([2]; first compound 0.1581 µM) | relative viability ([2]; first compound 0.5 µM) | relative viability ([3]; first compound 0.02 µM) | relative viability ([3]; first compound 0.06325 µM) | relative viability ([3]; first compound 0.2 µM) | relative viability ([3]; first compound 0.6325 µM) | relative viability ([3]; first compound 2 µM) | relative viability ([4]; first compound 0.02 µM) | relative viability ([4]; first compound 0.06325 µM) | relative viability ([4]; first compound 0.2 µM) | relative viability ([4]; first compound 0.6325 µM) | relative viability ([4]; first compound 2 µM)
1 | HCC-827 | 0.237 | 0.241 | 0.163 | 0.137 | 0.138 | 0.366 | 0.425 | 0.424 | 0.438 | 0.394 | 0.897 | 0.589 | 0.57 | 0.183 | 0.147 | 0.245 | 0.241 | 0.263 | 0.173 | 0.171
2 | HOP-62 | 0.295 | 0.355 | 0.346 | 0.349 | 0.311 | 0.291 | 0.42 | 0.398 | 0.366 | 0.372 | 0.884 | 0.886 | 0.909 | 0.823 | 0.848 | 0.325 | 0.358 | 0.438 | 0.299 | 0.291
3 | LC-2-ad | 0.247 | 0.271 | 0.284 | 0.26 | 0.284 | 0.358 | 0.433 | 0.405 | 0.449 | 0.437 | 0.987 | 0.996 | 1.09 | 1 | 0.616 | 0.257 | 0.278 | 0.273 | 0.259 | 0.264
4 | LCLC-97TM1 | 0.166 | 0.172 | 0.183 | 0.157 | 0.135 | 0.294 | 0.214 | 0.273 | 0.256 | 0.281 | 0.691 | 0.787 | 0.749 | 0.721 | 0.778 | 0.18 | 0.184 | 0.166 | 0.181 | 0.181
5 | LCLC-103H | 0.472 | 0.537 | 0.486 | 0.456 | 0.429 | 0.49 | 0.492 | 0.525 | 0.558 | 0.478 | 0.922 | 0.979 | 0.906 | 0.916 | 0.912 | 0.497 | 0.493 | 0.478 | 0.48 | 0.5
6 | LK-2 | 0.255 | 0.28 | 0.245 | 0.207 | 0.133 | 0.171 | 0.186 | 0.164 | 0.174 | 0.184 | 0.189 | 0.163 | 0.235 | 0.156 | 0.214 | 0.259 | 0.228 | 0.284 | 0.276 | 0.245
7 | LOU-NH91 | 0.411 | 0.414 | 0.421 | 0.315 | 0.341 | 0.652 | 0.606 | 0.599 | 0.689 | 0.59 | 0.33 | 0.306 | 0.294 | 0.369 | 0.32 | 0.413 | 0.381 | 0.391 | 0.442 | 0.431
8 | LU99A | 0.205 | 0.197 | 0.179 | 0.18 | 0.176 | 0.258 | 0.247 | 0.224 | 0.278 | 0.214 | 0.231 | 0.233 | 0.273 | 0.255 | 0.256 | 0.172 | 0.191 | 0.197 | 0.21 | 0.187
9 | LXF-289 | 0.881 | 0.888 | 0.873 | 0.904 | 0.805 | 0.173 | 0.197 | 0.184 | 0.232 | 0.237 | 0.626 | 0.627 | 0.744 | 0.718 | 0.624 | 0.916 | 0.949 | 0.885 | 0.909 | 0.889
10 | NCI-H23 | 0.757 | 0.744 | 0.604 | 0.755 | 0.514 | 0.634 | 0.304 | 0.35 | 0.301 | 0.343 | 0.259 | 0.224 | 0.232 | 0.221 | 0.221 | 0.605 | 0.655 | 0.634 | 0.631 | 0.666
11 | NCI-H322M | 0.636 | 0.604 | 0.585 | 0.569 | 0.453 | 0.4 | 0.382 | 0.487 | 0.531 | 0.48 | 0.805 | 0.8 | 0.889 | 0.834 | 0.504 | 0.579 | 0.615 | 0.641 | 0.604 | 0.51
12 | NCI-H358 | 0.181 | 0.187 | 0.166 | 0.161 | 0.154 | 0.084 | 0.0964 | 0.0992 | 0.109 | 0.0865 | 0.336 | 0.471 | 0.461 | 0.218 | 0.239 | 0.173 | 0.17 | 0.17 | 0.165 | 0.162
13 | NCI-H727 | – | – | – | – | – | 0.629 | 0.674 | 0.51 | 0.512 | 0.686 | 0.591 | 0.349 | 0.247 | 0.252 | 0.316 | – | – | – | – | –
14 | NCI-H1563 | 0.78 | 0.758 | 0.844 | 0.773 | 0.512 | – | – | – | – | – | 0.552 | 0.53 | 0.515 | 0.518 | 0.473 | 0.75 | 0.732 | 0.755 | 0.678 | 0.755
15 | NCI-H1623 | – | – | – | – | – | 0.55 | 0.398 | 0.395 | 0.462 | 0.351 | 0.504 | 0.577 | 0.581 | 0.521 | 0.436 | – | – | – | – | –
16 | NCI-H1648 | 0.826 | 0.744 | 0.805 | 0.741 | 0.535 | 0.394 | 0.416 | 0.553 | 0.424 | 0.484 | – | – | – | – | – | 0.568 | 0.691 | 0.652 | 0.995 | 0.714
17 | NCI-H1792 | 0.856 | 0.787 | 0.915 | 0.721 | 0.581 | – | – | – | – | – | 0.492 | 0.496 | 0.355 | 0.461 | 0.413 | 0.834 | 0.733 | 0.733 | 0.822 | 0.771
